The target in test [1] is T1, ADP/ATP translocase 2 (Homo sapiens, UniProt P05141).
T1 sequence (P05141 whole entry): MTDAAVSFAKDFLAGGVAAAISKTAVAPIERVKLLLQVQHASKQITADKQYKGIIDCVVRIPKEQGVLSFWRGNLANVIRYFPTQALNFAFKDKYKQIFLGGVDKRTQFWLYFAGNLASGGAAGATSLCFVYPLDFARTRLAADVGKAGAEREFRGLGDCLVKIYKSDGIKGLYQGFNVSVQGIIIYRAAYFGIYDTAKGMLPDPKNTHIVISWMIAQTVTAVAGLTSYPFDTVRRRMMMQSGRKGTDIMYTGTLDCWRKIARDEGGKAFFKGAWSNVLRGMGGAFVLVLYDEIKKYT

In test [2] the target is Focal adhesion kinase 1 (Homo sapiens, UniProt Q05397).
The target of test [3] is Dual specificity mitogen-activated protein kinase kinase 1 (Homo sapiens, UniProt Q02750).
Sequence of Dual specificity mitogen-activated protein kinase kinase 1 (Q02750 whole entry): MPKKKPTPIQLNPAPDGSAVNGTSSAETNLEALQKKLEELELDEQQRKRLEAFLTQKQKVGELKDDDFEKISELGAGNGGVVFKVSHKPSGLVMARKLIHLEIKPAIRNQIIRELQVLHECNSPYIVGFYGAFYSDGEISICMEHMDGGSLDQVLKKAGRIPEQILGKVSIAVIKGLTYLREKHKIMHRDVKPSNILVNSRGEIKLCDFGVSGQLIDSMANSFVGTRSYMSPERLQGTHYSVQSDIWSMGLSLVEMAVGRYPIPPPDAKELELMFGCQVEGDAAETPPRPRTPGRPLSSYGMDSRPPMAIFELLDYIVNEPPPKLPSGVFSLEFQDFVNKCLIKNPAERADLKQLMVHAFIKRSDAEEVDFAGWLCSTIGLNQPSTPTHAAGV
In test [4] the target is cAMP-dependent protein kinase catalytic subunit beta (Homo sapiens, UniProt P22694).
In test [5] the target is T2, Glycine--tRNA ligase (Homo sapiens, UniProt P41250).
T2 sequence (P41250 whole entry): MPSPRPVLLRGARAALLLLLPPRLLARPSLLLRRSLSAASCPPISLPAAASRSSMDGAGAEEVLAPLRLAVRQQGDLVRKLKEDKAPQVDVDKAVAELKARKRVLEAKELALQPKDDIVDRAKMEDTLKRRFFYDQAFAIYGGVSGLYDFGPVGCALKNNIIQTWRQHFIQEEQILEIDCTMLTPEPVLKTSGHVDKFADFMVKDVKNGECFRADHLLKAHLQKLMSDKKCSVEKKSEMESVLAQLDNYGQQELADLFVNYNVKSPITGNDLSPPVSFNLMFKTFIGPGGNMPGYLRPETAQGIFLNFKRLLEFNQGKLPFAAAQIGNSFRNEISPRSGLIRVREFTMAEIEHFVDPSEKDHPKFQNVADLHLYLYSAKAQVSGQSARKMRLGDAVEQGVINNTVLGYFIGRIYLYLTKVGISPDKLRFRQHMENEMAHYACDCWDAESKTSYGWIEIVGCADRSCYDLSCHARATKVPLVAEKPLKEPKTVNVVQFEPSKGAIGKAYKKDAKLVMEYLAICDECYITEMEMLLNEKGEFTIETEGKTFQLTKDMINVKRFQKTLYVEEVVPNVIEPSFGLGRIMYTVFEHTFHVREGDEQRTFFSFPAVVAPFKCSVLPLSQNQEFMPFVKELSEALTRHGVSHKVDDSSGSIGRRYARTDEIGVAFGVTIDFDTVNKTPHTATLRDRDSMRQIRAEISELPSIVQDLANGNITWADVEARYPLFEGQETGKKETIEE

The target in test [6] is Protein kinase C alpha type (Homo sapiens, UniProt P17252).
Test [7] addresses T3, Thyroid hormone receptor-associated protein 3 (Homo sapiens, UniProt Q9Y2W1).
T3 sequence (Q9Y2W1 whole entry): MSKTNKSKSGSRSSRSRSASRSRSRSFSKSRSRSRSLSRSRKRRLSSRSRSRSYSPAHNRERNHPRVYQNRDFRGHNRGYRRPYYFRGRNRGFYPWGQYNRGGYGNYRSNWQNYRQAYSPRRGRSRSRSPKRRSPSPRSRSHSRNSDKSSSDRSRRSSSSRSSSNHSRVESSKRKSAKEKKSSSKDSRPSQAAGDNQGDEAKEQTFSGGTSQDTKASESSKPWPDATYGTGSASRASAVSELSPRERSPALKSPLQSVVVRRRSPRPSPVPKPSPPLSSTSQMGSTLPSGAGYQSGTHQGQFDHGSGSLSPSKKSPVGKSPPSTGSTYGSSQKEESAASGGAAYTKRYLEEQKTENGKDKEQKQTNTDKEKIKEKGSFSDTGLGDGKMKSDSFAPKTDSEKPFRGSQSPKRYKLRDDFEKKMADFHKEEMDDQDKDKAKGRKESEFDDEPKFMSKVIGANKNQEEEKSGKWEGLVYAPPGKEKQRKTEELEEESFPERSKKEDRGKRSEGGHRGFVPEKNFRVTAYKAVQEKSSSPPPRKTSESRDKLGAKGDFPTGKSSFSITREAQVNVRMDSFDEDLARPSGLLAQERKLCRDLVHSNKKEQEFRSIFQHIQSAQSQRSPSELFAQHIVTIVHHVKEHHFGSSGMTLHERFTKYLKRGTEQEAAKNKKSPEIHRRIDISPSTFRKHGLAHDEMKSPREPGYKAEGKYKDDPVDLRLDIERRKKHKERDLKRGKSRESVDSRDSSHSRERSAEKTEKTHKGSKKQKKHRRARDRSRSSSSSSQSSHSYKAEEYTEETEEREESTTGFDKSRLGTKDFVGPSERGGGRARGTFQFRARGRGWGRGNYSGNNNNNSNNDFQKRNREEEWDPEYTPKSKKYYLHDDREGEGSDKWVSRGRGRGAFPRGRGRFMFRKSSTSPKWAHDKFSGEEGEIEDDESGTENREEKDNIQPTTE

For test [8], the target named is Calcium/calmodulin-dependent protein kinase type II subunit gamma (Homo sapiens, UniProt Q13555).
Sequence of Calcium/calmodulin-dependent protein kinase type II subunit gamma (Q13555 whole entry): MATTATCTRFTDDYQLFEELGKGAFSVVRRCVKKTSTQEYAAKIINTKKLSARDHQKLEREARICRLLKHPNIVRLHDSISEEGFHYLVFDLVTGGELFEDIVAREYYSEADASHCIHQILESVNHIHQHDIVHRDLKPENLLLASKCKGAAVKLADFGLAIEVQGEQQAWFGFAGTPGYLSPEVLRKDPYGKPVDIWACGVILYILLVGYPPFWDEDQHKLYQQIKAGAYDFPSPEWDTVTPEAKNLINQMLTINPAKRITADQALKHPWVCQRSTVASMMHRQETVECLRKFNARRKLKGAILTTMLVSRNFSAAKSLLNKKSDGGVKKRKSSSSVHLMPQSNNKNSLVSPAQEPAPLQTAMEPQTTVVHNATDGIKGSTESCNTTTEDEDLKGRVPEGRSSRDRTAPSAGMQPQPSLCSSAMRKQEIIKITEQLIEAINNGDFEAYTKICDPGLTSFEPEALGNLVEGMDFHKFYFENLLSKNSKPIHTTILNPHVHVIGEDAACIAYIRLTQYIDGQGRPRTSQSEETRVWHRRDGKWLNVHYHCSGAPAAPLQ
The target of test [9] is Tyrosine-protein kinase FRK (Homo sapiens, UniProt P42685).
Sequence of Tyrosine-protein kinase FRK (P42685 whole entry): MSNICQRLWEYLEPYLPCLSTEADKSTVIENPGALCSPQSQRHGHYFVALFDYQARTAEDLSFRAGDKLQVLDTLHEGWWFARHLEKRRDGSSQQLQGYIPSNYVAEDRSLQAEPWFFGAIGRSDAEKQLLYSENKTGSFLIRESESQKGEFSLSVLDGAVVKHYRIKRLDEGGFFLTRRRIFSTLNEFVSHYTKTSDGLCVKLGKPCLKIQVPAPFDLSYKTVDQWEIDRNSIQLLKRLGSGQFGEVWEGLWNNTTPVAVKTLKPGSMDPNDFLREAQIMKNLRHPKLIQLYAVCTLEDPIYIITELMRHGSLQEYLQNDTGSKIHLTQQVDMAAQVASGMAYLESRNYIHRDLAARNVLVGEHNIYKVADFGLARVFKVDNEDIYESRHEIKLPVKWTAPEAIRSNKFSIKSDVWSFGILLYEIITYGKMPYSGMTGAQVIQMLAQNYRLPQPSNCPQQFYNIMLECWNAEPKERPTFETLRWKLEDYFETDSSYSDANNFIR

Counter-ions that a name gives are not always drawn. Active and inactive are the calls of the source. For most assays here, no stated cut-off is given here; in the data, actives have a measured Kd and inactives only a lower limit.

This passage reports Kd results from ChEMBL document CHEMBL3991601, “The target landscape of clinical kinase drugs” (Science, 2017).

Sequence of Focal adhesion kinase 1 (Q05397 whole entry): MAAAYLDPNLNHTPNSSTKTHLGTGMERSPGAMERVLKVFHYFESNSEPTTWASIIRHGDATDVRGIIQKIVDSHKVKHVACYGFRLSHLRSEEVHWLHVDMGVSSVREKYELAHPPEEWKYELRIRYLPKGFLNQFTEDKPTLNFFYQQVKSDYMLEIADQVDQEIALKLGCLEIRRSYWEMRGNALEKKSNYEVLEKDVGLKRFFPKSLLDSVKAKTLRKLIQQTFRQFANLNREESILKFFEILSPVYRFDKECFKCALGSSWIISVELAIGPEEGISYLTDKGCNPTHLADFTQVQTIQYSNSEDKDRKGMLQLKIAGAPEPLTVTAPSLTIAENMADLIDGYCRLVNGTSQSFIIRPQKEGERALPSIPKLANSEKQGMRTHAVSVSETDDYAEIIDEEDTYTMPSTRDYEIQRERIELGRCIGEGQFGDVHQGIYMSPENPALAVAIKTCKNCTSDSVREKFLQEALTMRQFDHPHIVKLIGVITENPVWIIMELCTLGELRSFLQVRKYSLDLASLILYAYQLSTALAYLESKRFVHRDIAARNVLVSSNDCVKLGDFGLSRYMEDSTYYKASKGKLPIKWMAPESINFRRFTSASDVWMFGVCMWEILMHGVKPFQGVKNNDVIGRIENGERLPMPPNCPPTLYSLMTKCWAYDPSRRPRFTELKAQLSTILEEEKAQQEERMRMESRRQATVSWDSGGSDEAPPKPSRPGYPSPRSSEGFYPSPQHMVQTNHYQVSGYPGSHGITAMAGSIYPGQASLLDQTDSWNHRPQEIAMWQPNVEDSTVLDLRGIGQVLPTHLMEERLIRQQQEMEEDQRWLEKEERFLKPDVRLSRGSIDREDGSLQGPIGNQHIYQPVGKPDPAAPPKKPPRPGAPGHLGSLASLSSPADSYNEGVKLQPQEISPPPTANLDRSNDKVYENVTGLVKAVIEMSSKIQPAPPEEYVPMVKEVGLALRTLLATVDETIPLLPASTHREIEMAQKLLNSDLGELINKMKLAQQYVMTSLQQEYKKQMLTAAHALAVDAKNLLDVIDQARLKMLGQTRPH

What is called Kd is the concentration at which binding is half-saturated. Take `NC(=O)Nc1cc(-c2cccc(F)c2)sc1C(=O)N[C@H]1CCCNC1` [AZD-7762]: the Kd is > 30 µM (inactive) in test [1]; 0.948 µM (active) in test [2]; 2.04 µM (active) in test [3]; > 30 µM (inactive) in test [4]; > 30 µM (inactive) in test [5]; > 30 µM (inactive) in test [6]. The Kd in test [7] was > 30 µM (inactive); in test [8], > 30 µM (inactive); in test [9] it was 1.21 µM (active).
Consider `Cn1cnc2c(F)c(Nc3ccc(Br)cc3F)c(C(=O)NOCCO)cc21` [BINIMETINIB], for which the Kd was > 30 µM (inactive) in test [1]; > 30 µM (inactive) in test [2]; 0.045 µM (active) in test [3]; > 30 µM (inactive) in [4]; > 30 µM (inactive) in test [5]; > 30 µM (inactive) in [6]. Further, the Kd in [7], in test [8] and in [9] was > 30 µM (inactive) each time.
As for `CCn1c(C(=O)N(C2CC2)C2CC2)cc2c3c(ncn3C)c(Nc3cc(C)n(C)n3)nc21` [BMS-911543], the Kd in test [1], in test [2], in [3], in test [4], in test [5] and in [6] was > 30 µM (inactive) each time. In addition, the Kd in test [7], in test [8] and in test [9] was > 30 µM (inactive) throughout.
In the case of `COc1cc2ncnc(Oc3cccc(NC(=O)Nc4cc(C(C)(C)C(F)(F)F)on4)c3)c2cc1OC` [CEP-32496], the Kd in test [1], in test [2], in test [3], in test [4], in test [5] and in test [6] was > 30 µM (inactive) throughout. In addition, the Kd was > 30 µM (inactive) in test [7], > 30 µM (inactive) in test [8] and 0.85 µM in test [9].
In the case of `COCC(=O)NC/C=C/c1ccc2ncnc(Nc3ccc(Oc4ccc(C)nc4)c(C)c3)c2c1` [CP-724714], the Kd in test [1], in [2], in test [3], in test [4], in test [5] and in test [6] was > 30 µM (inactive) in each case. In addition, the Kd in [7], in test [8] and in test [9] was > 30 µM (inactive) each time.
For `C#Cc1cccc(Nc2ncnc3cc(OC)c(OCCCCCCC(=O)NO)cc23)c1` [CUDC-101], the Kd in test [1], in [2], in test [3], in test [4], in [5] and in [6] was > 30 µM (inactive) throughout. In addition, the Kd in test [7], in test [8] and in [9] was > 30 µM (inactive) in each case.
On to `CCS(=O)(=O)N1CCN(c2ccc(Nc3ncc(C(N)=O)c(NC4CC4)n3)cc2)CC1` [Cerdulatinib Hydrochloride], for which the Kd in test [1], in test [2], in test [3], in [4], in [5] and in test [6] was > 30 µM (inactive) in each case. For the same molecule, the Kd in test [7], in test [8] and in test [9] was > 30 µM (inactive) in each case.
`COc1ccc(S(=O)(=O)N(C(C)=O)c2ccccc2/C=C/c2cc[n+]([O-])cc2)cc1` [HMN-214]: the Kd in [1], in test [2], in test [3], in test [4], in [5] and in [6] was > 30 µM (inactive) throughout. The Kd in test [7], in test [8] and in [9] was > 30 µM (inactive) each time.
With `O=C(Nc1cc(C(F)(F)F)cc(C(F)(F)F)c1)c1cc(Cl)ccc1O` [IMD-0354], the Kd in test [1], in [2], in test [3], in [4], in test [5] and in [6] was > 30 µM (inactive) in each case. Moreover, the Kd in test [7], in test [8] and in test [9] was > 30 µM (inactive) each time.
On to `NC1(c2ccc(-c3nc4ccn5c(=O)[nH]nc5c4cc3-c3ccccc3)cc2)CCC1` [MK-2206], for which the Kd in [1], in test [2], in [3], in test [4], in test [5] and in [6] was > 30 µM (inactive) each time. Also, the Kd in test [7], in [8] and in [9] was > 30 µM (inactive) in each case.
As for `Cn1cc(-c2cnc3ccc4ccc(CS(=O)(=O)NCc5ccccn5)cc4c(=O)c3c2)cn1` [MK-8033], the Kd in [1], in [2], in [3], in test [4], in test [5] and in test [6] was > 30 µM (inactive) in each case. Further, the Kd in test [7], in test [8] and in [9] was > 30 µM (inactive) each time.
For the molecule `FC(F)(F)c1ccc(/C=C/c2nc(COc3ccc(CCCCn4ccnn4)cc3)co2)cc1` [MUBRITINIB], the Kd in [1], in [2], in test [3], in test [4], in [5] and in [6] was > 30 µM (inactive) in each case. Besides, the Kd in test [7], in test [8] and in test [9] was > 30 µM (inactive) each time.
Consider `CCCCCCCCCCCCCCCCCCOP(=O)([O-])OC1CC[N+](C)(C)CC1` [PERIFOSINE], for which the Kd in test [1], in test [2], in test [3], in [4], in test [5] and in [6] was > 30 µM (inactive) each time. The Kd in test [7], in [8] and in [9] was > 30 µM (inactive) each time.
